Results taken from US20230002375A1, “HYDROPYRAZINO[1,2-B]ISOQUINOLINE COMPOUNDS FOR THE TREATMENT OF AUTOIMMUNE DISEASE” (Hoffmann-La Roche Inc., priority 2019, published 2023).

Target: T1, human TLR7 (Homo sapiens, UniProt Q9NYK1)
T1 sequence (Q9NYK1 27-1049): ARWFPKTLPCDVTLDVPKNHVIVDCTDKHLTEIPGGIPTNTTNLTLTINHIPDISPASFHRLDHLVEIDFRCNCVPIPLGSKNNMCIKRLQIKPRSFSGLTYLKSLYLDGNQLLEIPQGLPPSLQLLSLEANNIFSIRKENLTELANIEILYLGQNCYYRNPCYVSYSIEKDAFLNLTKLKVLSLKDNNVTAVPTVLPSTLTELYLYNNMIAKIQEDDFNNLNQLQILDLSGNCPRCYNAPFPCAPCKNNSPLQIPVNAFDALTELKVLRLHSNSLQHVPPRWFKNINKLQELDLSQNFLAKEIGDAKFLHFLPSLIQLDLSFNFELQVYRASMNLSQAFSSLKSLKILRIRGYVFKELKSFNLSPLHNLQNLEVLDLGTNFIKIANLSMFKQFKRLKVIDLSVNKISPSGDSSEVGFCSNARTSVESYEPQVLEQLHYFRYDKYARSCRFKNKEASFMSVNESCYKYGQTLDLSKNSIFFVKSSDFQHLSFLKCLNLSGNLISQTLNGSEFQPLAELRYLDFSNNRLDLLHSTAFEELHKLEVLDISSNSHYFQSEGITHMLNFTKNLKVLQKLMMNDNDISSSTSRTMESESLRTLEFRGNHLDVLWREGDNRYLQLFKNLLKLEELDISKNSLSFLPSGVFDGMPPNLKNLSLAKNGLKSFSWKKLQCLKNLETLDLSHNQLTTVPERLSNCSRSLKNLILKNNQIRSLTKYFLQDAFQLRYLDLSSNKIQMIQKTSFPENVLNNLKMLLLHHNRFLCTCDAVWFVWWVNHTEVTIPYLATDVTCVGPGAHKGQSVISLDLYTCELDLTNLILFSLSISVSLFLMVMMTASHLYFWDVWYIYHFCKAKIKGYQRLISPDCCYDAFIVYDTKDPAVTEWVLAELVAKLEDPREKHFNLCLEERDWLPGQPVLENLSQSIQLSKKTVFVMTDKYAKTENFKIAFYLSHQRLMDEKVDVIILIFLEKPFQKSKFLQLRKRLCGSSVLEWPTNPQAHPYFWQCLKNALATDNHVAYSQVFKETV
Assay: HEK293-Blue-hTLR-7 cells assay (SEAP reporter, R848 stimulation)
Type: cell-based
Details: HEK293-Blue-hTLR7 cells, R848, 20 hrs incubation; read-out: HEK/hTLR7 IC50
Description: The following tests were carried out in order to determine the activity of the compounds of formula (I), (Ia) or (Ib) in HEK293-Blue-hTLR-7/8/9 cells assay.
HEK293-Blue-hTLR-7 Cells Assay:
A stable HEK293-Blue-hTLR-7 cell line was purchased from InvivoGen (Cat.#: hkb-htlr7, San Diego, Calif., USA). These cells were originally designed for studying the stimulation of human TLR7 by monitoring the activation of NF-κB. A SEAP (secreted embryonic alkaline phosphatase) reporter gene was placed under the control of the IFN-β minimal promoter fused to five NF-κB and AP-1-binding sites. The SEAP was induced by activating NF-κB and AP-1 via stimulating HEK-Blue hTLR7 cells with TLR7 ligands. Therefore the reporter expression was declined by TLR7 antagonist under the stimulation of a ligand, such as R848 (Resiquimod), for incubation of 20 hrs. The cell culture supernatant SEAP reporter activity was determined using QUANTI-Blue™ kit (Cat.#: rep-qb1, Invivogen, San Diego, Ca, USA) at a wavelength of 640 nm, a detection medium that turns purple or blue in the presence of alkaline phosphatase.
HEK293-Blue-hTLR7 cells were incubated at a density of 250,000˜450,000 cells/mL in a volume of 170 μL in a 96-well plate in Dulbecco's Modified Eagle's medium (DMEM) containing 4.5 g/L glucose, 50 U/mL penicillin, […], […], 2 mM L-glutamine, 10% (v/v) heat-inactivated fetal bovine serum with addition of 20 μL test compound in a serial dilution in the presence of final DMSO at 1% and 10 μL of 20 uM R848 in above DMEM, perform incubation under 37° C. in a CO2 incubator for 20 hrs. Then 20 μL of the supernatant from each well was incubated with 180 μL Quanti-blue substrate solution at 37° C. for 2 hrs and the absorbance was read at 620-655 nm using a spectrophotometer. The signaling pathway that TLR7 activation leads to downstream NF-κB activation has been widely accepted, and therefore similar reporter assay was modified for evaluating TLR7 antagonist.

SMILES | IC50
C[C@@H]1CN(c2ccc(C#N)c3ncccc23)C[C@@H]2Cc3cc(OCCN(C)C)ccc3CN21 [Example 11, 5-[(4R,11aS)-9-[2-(dimethylamino)ethoxy]-4-methyl-1,3,4,6,11,11a-hexahydropyrazino[1,2-b]isoquinolin-2-yl]quinoline-8-carbonitrile] | 5.8 nM
C[C@@H]1CN(c2ccc(C#N)c3ncccc23)C[C@@H]2Cc3cc(N4C[C@@H]5CNCCN5C4=O)ccc3CN21 (single isomer, unassigned) [Example 17A] | 10.3 nM
C[C@@H]1CN(c2ccc(C#N)c3ncccc23)C[C@@H]2Cc3cc(N4C[C@@H]5C[C@H]4CN5C(=O)C(C)(C)N)ccc3CN21 [Example 15, 5-[(4R,11aS)-9-[(1S,4S)-5-(2-amino-2-methyl-propanoyl)-2,5-diazabicyclo[2.2.1]heptan-2-yl]-4-methyl-1,3,4,6,11,11a-hexahydropyrazino[1,2-b]isoquinolin-2-yl]quinoline-8-carbonitrile] | 2.4 nM
C[C@@H]1CN(c2ccc(C#N)c3ncccc23)C[C@@H]2Cc3cc(N[C@@H]4CNC[C@@H]4F)ccc3CN21 [Example 6, 5-[(4R,11aS)-4-methyl-9-[[(3R,4S)-4-fluoropyrrolidin-3-yl]amino]-1,3,4,6,11,11a-hexahydropyrazino[1,2-b]isoquinolin-2-yl]quinoline-8-carbonitrile] | 24.7 nM
C[C@@H]1CN(c2ccc(C#N)c3ncccc23)C[C@@H]2Cc3cc(N4C[C@H]5CNCCN5C4=O)ccc3CN21 (single isomer, unassigned) [Example 17B] | 10.3 nM
C[C@@H]1CN(c2ccc(C#N)c3ncccc23)C[C@@H]2Cc3cc(OC[C@@H]4CCN4)ccc3CN21 [Example 12, 5-[(4R,11aS)-9-[[(2S)-azetidin-2-yl]methoxy]-4-methyl-1,3,4,6,11,11a-hexahydropyrazino[1,2-b]isoquinolin-2-yl]quinoline-8-carbonitrile] | 18.2 nM
C[C@@H]1CN(c2ccc(C#N)c3ncccc23)C[C@@H]2Cc3cc(N4CCN(C(=O)[C@]5(C)CCCN5)CC4)ccc3CN21 [Example 14, 5-[(4R,11aS)-4-methyl-9-[4-[(2S)-2-methylpyrrolidine-2-carbonyl]piperazin-1-yl]-1,3,4,6,11,11a-hexahydropyrazino[1,2-b]isoquinolin-2-yl]quinoline-8-carbonitrile] | 18.6 nM

More lines, in order of falling IC50, values ahead:

IC50 | SMILES
71.6 nM | C[C@@H]1CN(c2ccc(C#N)c3ncccc23)C[C@@H]2Cc3ccc(N4CCOCC(N)C4)cc3CN21 (stereo partly drawn) [Example 1, 5-[(4R,11aS)-8-(6-amino-1,4-oxazepan-4-yl)-4-methyl-1,3,4,6,11,11a-hexahydropyrazino[1,2-b]isoquinolin-2-yl]quinoline-8-carbonitrile]
71.6 nM | C[C@@H]1CN(c2ccc(C#N)c3ncccc23)C[C@@H]2Cc3cc(N4CC5CCNCC5C4=O)ccc3CN21 (stereo partly drawn) [Example 18, 5-[(4R,11aS)-4-methyl-9-(3-oxo-3a,4,5,6,7,7a-hexahydro-1H-pyrrolo[3,4-c]pyridin-2-yl)-1,3,4,6,11,11a-hexahydropyrazino[1,2-b]isoquinolin-2-yl]quinoline-8-carbonitrile]
53.1 nM | C[C@@H]1CN(c2ccc(C#N)c3ncccc23)C[C@@H]2Cc3cc(N4CC5CNCCC5C4=O)ccc3CN21 (stereo partly drawn) [Example 19, 5-[(4R,11aS)-4-methyl-9-(1-oxo-3a,4,5,6,7,7a-hexahydro-3H-pyrrolo[3,4-c]pyridin-2-yl)-1,3,4,6,11,11a-hexahydropyrazino[1,2-b]isoquinolin-2-yl]quinoline-8-carbonitrile]
53.1 nM | C[C@@H]1CN(c2ccc(C#N)c3ncccc23)C[C@@H]2Cc3ccc(NCCN4CC[C@H](O)C4)cc3CN21 [Example 2, 5-[(4R,11aS)-8-[2-[(3S)-3-hydroxypyrrolidin-1-yl]ethylamino]-4-methyl-1,3,4,6,11,11a-hexahydropyrazino[1,2-b]isoquinolin-2-yl]quinoline-8-carbonitrile]
38.2 nM | C[C@@H]1CN(c2ccc(C#N)c3ncccc23)C[C@@H]2Cc3ccc(OCCN(C)C)cc3CN21 [Example 5, 5-[(4R,11aS)-8-[2-(dimethylamino)ethoxy]-4-methyl-1,3,4,6,11,11a-hexahydropyrazino[1,2-b]isoquinolin-2-yl]quinoline-8-carbonitrile]
35.5 nM | C[C@@H]1CN(c2ccc(C#N)c3ncccc23)C[C@@H]2Cc3cc(N4C[C@@H](F)[C@@H](N)C4)ccc3CN21 [Example 8, 5-[(4R,11aS)-9-[(3S,4R)-3-amino-4-fluoro-pyrrolidin-1-yl]-4-methyl-1,3,4,6,11,11a-hexahydropyrazino[1,2-b]isoquinolin-2-yl]quinoline-8-carbonitrile]
27.4 nM | CO[C@H]1CNC[C@H]1Nc1ccc2c(c1)C[C@H]1CN(c3ccc(C#N)c4ncccc34)C[C@@H](C)N1C2 [Example 7, 5-[(4R,11aS)-9-[[(3R,4S)-4-methoxypyrrolidin-3-yl]amino]-4-methyl-1,3,4,6,11,11a-hexahydropyrazino[1,2-b]isoquinolin-2-yl]quinoline-8-carbonitrile]
21.8 nM | C[C@@H]1CN(c2ccc(C#N)c3ncccc23)C[C@@H]2Cc3cc(N4CC5NCCOC5C4)ccc3CN21 (stereo in doubt) [Example 10, 5-[(4R,11aS)-9-[(4aS,7aS)-3,4,4a,5,7,7a-hexahydro-2H-pyrrolo[3,4-b][1,4]oxazin-6-yl]-4-methyl-1,3,4,6,11,11a-hexahydropyrazino[1,2-b]isoquinolin-2-yl]quinoline-8-carbonitrile]
19.5 nM | CO[C@H]1CN(c2ccc3c(c2)C[C@H]2CN(c4ccc(C#N)c5ncccc45)C[C@@H](C)N2C3)C[C@H]1N [Example 9, 5-[(4R,11aS)-9-[(3R,4S)-3-amino-4-methoxy-pyrrolidin-1-yl]-4-methyl-1,3,4,6,11,11a-hexahydropyrazino[1,2-b]isoquinolin-2-yl]quinoline-8-carbonitrile]
18.6 nM | C[C@@H]1CN(c2ccc(C#N)c3ncccc23)C[C@@H]2Cc3cc(N4CCN(C(=O)C(C)(C)N)CC4)ccc3CN21 [Example 13, 5-[(4R,11aS)-9-[4-(2-amino-2-methyl-propanoyl)piperazin-1-yl]-4-methyl-1,3,4,6,11,11a-hexahydropyrazino[1,2-b]isoquinolin-2-yl]quinoline-8-carbonitrile]
2.9 nM | C[C@@H]1CN(c2ccc(C#N)c3ncccc23)C[C@@H]2Cc3cc(N4CC(N)CC4=O)ccc3CN21 (stereo partly drawn) [Example 16, 5-[(4R,11aS)-9-(4-amino-2-oxo-pyrrolidin-1-yl)-4-methyl-1,3,4,6,11,11a-hexahydropyrazino[1,2-b]isoquinolin-2-yl]quinoline-8-carbonitrile]
